One may read the MIC as the lowest concentration found to suppress growth.

Assay [1] deals with S. pneumoniae. As to conditions: S. pneumoniae MMX 6837 (ATCC 49619); cited from earlier work.
Assay [2] relates to S. aureus. Kind of assay: Broth microdilution MIC (Example 11). In kind it is cell-based, Staphylococcus aureus. As to conditions: Staphylococcus aureus, ATCC 29213 / MSSA, S. aureus MMX 101 (ATCC 29213), QC, MSSA. On the technique in general: Broth dilution looks for growth in wells or tubes with falling amounts of substance.
For a further assay, the system named is Enterococcus spp. Briefly: Broth microdilution MIC (Example 11). Type of assay: cell-based, E. faecalis, E. faecium.
Assay [3] deals with S. aureus. As to conditions: S. aureus MMX 101 (ATCC 29213); cited from earlier work.
Assay [4] concerns S. pneumoniae. Briefly: Broth microdilution MIC (Example 11). In kind it is cell-based, Streptococcus pneumoniae.
Assay [5] has as its system beta-hemolytic streptococci. Kind of assay: Broth microdilution MIC (Example 11). Type of assay: cell-based, S. pyogenes, S. agalactiae.
The test system of assay [6] is Burkholderia cepacia complex. In kind it is cell-based, Burkholderia spp. As to conditions: initial MIC testing.
Assay [7] relates to P. aeruginosa. Kind of assay: Checkerboard FIC/FICI assay. In kind it is cell-based, Pseudomonas aeruginosa. As to conditions: during FIC testing.
Assay [8] deals with P. aeruginosa. As to conditions: P. aeruginosa isolate 103; CLSI QC range in parenthesis; cited from earlier work.
In assay [9] the test system is P. aeruginosa. As to conditions: P. aeruginosa isolate 103; CLSI QC range in parenthesis; cited from earlier work. This is another data set of the same source.
Assay [10] has as its system Burkholderia cepacia complex. Kind of assay: Checkerboard FIC/FICI assay. As to conditions: during FIC testing. In kind it is cell-based, Burkholderia spp.
The subject of assay [11] is P. aeruginosa. Kind of assay: Broth microdilution MIC (Example 10). As to conditions: initial MIC testing. Type of assay: cell-based, Pseudomonas aeruginosa.

Values after ≈ are worked out from the molar mass of the structure shown. Read-outs that look alike come from different tables or passages of the source.

On to `CC[C@H]1OC(=O)[C@H](C)[C@@H](O[C@H]2C[C@@](C)(OC)[C@@H](O)[C@H](C)O2)[C@H](C)[C@@H](O[C@@H]2O[C@H](C)C[C@H](N(C)C)[C@H]2O)[C@](C)(O)C[C@@H](C)C(=O)[C@H](C)[C@@H](O)[C@]1(C)O` [Erythromycin], for which the “CLSI QC range of MIC” value is “(0.03-0.12) μg/mL” with S. pneumoniae [1] and “(0.25-1) μg/mL” in the assay with S. aureus [3]. The MIC in the assay with S. aureus [2] (read-out: MIC) was 0.5 µg/mL (≈ 0.681 µM); with Enterococcus spp. (E. faecalis MMX 8960, VRE, Lev^R Cip^R Ery^R, read-out: MIC), > 64 µg/mL; in the assay on Enterococcus spp. (E. faecalis MMX 8961, VRE, Lev^R Cip^R Ery^R, read-out: MIC) it was > 64 µg/mL; with Enterococcus spp. (E. faecalis MMX 8962, VRE, Lev^R Cip^R Ery^R, read-out: MIC), > 64 µg/mL; with Enterococcus spp. (E. faecium MMX 485, VRE vanA, Lev^R Cip^R Ery^R, read-out: MIC), > 64 µg/mL; in the assay with Enterococcus spp. (E. faecium MMX 752, VRE vanA, Lev^R Cip^R Ery^R, read-out: MIC) it was > 64 µg/mL.
As to Penicillin, the “CLSI QC range of MIC” value with S. pneumoniae [1] is “(0.25-1) μg/mL”. Moreover, the minimal inhibitory concentration (MIC) against S. pneumoniae [4] (S. pneumoniae MMX 880, Lev^R SXT^R CC^R Ery^R Pen^R) is 2 µg/mL; with S. pneumoniae [4] (S. pneumoniae MMX 937, Mem^R SXT^R CC^R Ery^R Per^R), 4 µg/mL; against S. pneumoniae [4] (S. pneumoniae MMX 3959, CC^R Ery^R), 0.12 µg/mL; against S. pneumoniae [4] (S. pneumoniae MMX 5440, Mem^R SXT^R CC^R Ery^R Pen^R) it was 4 µg/mL; with S. pneumoniae [4] (S. pneumoniae MMX 5445, Mem^R SXT^R CC^R Ery^R Pen^R), 4 µg/mL; against S. pneumoniae [4] (S. pneumoniae MMX 6837 (ATCC 49619), QC), 0.25 µg/mL. Also, the MIC in the assay with S. pneumoniae [4] (S. pneumoniae MMX 8133, Mem^R SXT^R CC^R Ery^R Pen^R) was 4 µg/mL; in [5] (S. agalactiae MMX 3741, ERY^R CC^R), 0.03 µg/mL; in assay [5] (S. agalactiae MMX 3743, ERY^R CC^R) it was 0.06 µg/mL; in assay [5] (S. agalactiae MMX 4077, ERY^R CC^R) it was 0.06 µg/mL; in assay [5] (S. agalactiae MMX 4079, ERY^R CC^R Pen^R MEM^R), 2 µg/mL; in assay [5] (S. agalactiae MMX 4086, ERY^R CC^R), 0.06 µg/mL. Besides, the MIC is ≤0.008 µg/mL in assay [5] (S. pyogenes MMX 3068, Ery^R); ≤0.008 µg/mL in assay [5] (S. pyogenes MMX 3820, ERY^R CLI^R); ≤0.008 µg/mL in assay [5] (S. pyogenes MMX 3919, ERY^R); ≤0.008 µg/mL in [5] (S. pyogenes MMX 3929, ERY^R CC^R); ≤0.008 µg/mL in assay [5] (S. pyogenes MMX 5091, ERY^R CC^R).
On to `CN[C@H](CC(C)C)C(=O)N[C@H]1C(=O)N[C@@H](CC(N)=O)C(=O)N[C@H]2C(=O)N[C@H]3C(=O)N[C@H](C(=O)N[C@H](C(=O)O)c4cc(O)cc(O)c4-c4cc3ccc4O)[C@H](O)c3ccc(c(Cl)c3)Oc3cc2cc(c3O[C@@H]2O[C@H](CO)[C@@H](O)[C@H](O)[C@H]2O[C@H]2C[C@](C)(N)[C@H](O)[C@H](C)O2)Oc2ccc(cc2Cl)[C@H]1O` [vancomycin, reference compound], for which the “CLSI QC range of MIC” value in the assay with S. pneumoniae [1] is “(0.12-0.5) μg/mL”; in the assay with S. aureus [3], “(0.5-2) μg/mL”. For the same compound, the MIC in [5] (Streptococcus pyogenes, S. pyogenes MMX 3820, ERY^R CLI^R) is 0.5 µg/mL (≈ 0.345 µM); in assay [5] (Streptococcus pyogenes, S. pyogenes MMX 3919, ERY^R), 0.5 µg/mL (≈ 0.345 µM); in [5] (Streptococcus pyogenes, S. pyogenes MMX 3929, ERY^R CC^R), 0.5 µg/mL (≈ 0.345 µM); in assay [5] (Streptococcus pyogenes, S. pyogenes MMX 5091, ERY^R CC^R), 0.5 µg/mL (≈ 0.345 µM); in the assay on S. aureus [2], 1 µg/mL (≈ 0.69 µM); in the assay with Enterococcus spp. it was > 64 µg/mL. The MIC is >64 µg/mL against Enterococcus spp. (E. faecalis MMX 8960, VRE, Lev^R Cip^R Ery^R); >64 µg/mL against Enterococcus spp. (E. faecalis MMX 8962, VRE, Lev^R Cip^R Ery^R); >64 µg/mL in the assay with Enterococcus spp. (E. faecium MMX 485, VRE vanA, Lev^R Cip^R Ery^R); >64 µg/mL in the assay with Enterococcus spp. (E. faecium MMX 752, VRE vanA, Lev^R Cip^R Ery^R).
On to `NC[C@H]1O[C@H](O[C@H]2[C@H](O)[C@@H](O[C@H]3O[C@H](CO)[C@@H](O)[C@H](N)[C@H]3O)[C@H](N)C[C@@H]2N)[C@H](N)C[C@@H]1O` [TOB], for which the MIC was 64 µg/mL (≈ 137 µM) in assay [6] (B. cenocepacia isolate 0548 (CIP-R)); 256 µg/mL (≈ 548 µM) in assay [6] (B. cenocepacia isolate 0813 (CPI-I)); 64 µg/mL (≈ 137 µM) in [6] (B. cepacia isolate 0546); 64 µg/mL (≈ 137 µM) in assay [6] (B. cepacia isolate 1793); 64 µg/mL (≈ 137 µM) in [6] (B. cepacia isolate 1794); 8 µg/mL (≈ 17.1 µM) in [6] (B. cepacia isolate 9040). Besides, the MIC was 64 µg/mL (≈ 137 µM) in assay [6] (B. multivorans isolate 1791); 64 µg/mL (≈ 137 µM) in [6] (B. multivorans isolate 5665 (CIP-I)); 16 µg/mL (≈ 34.2 µM) in assay [6] (B. multivorans isolate 8952 (CIP-I)); 1 µg/mL in the assay on P. aeruginosa [7] (isolate 103 (ATCC 25922), each agent tested alone for QC, one replicate); 128 µg/mL with P. aeruginosa [7] (isolate 6322); 128 µg/mL in the assay on P. aeruginosa [7] (isolate 6977). The MIC in the assay with P. aeruginosa [7] (isolate 7745) turned out to be 0.5 µg/mL; with P. aeruginosa [7] (isolate 8798), 16 µg/mL; with P. aeruginosa [7] (isolate 9108), 0.5 µg/mL; in [10] (B. cenocepacia isolate 0548), 32 µg/mL; in [10] (B. cenocepacia isolate 0813), 256 µg/mL; in [10] (B. cepacia isolate 0546) it was 32 µg/mL. The MIC in assay [10] (B. cepacia isolate 1793) was 16 µg/mL; in the assay with P. aeruginosa [11] (P. aeruginosa isolate 103, QC strain), 1 µg/mL (≈ 2.14 µM); with P. aeruginosa [11] (P. aeruginosa isolate 1497 (TOB-R AMK-R, CIP-I, AZT-R, COL-R)), 16 µg/mL (≈ 34.2 µM); in the assay on P. aeruginosa [11] (P. aeruginosa isolate 1530 (TOB-R, AMK-R, CIP-R)), 32 µg/mL (≈ 68.4 µM); in the assay on P. aeruginosa [11] (P. aeruginosa isolate 1553 (TOB-R, AMK-R, CIP-R)), >256 µg/mL; in the assay with P. aeruginosa [11] (P. aeruginosa isolate 6322 (MEM-R, TOB-R, AMK-R, CIP-R, AZT-R)), 128 µg/mL (≈ 274 µM). Further, the MIC with P. aeruginosa [11] (P. aeruginosa isolate 6977 (MEM-I, TOB-R, CIP-R, AZT-I)) came to 128 µg/mL (≈ 274 µM); in the assay with P. aeruginosa [11] (P. aeruginosa isolate 7745 (MEM-R, CIP-R, AZT-R)), 0.5 µg/mL (≈ 1.07 µM); against P. aeruginosa [11] (P. aeruginosa isolate 7754 (MEM-R, TOB-R, CIP-R, AZT-I)) it was 32 µg/mL (≈ 68.4 µM); with P. aeruginosa [11] (P. aeruginosa isolate 7762 (MEM-I, CIP-I)), 1 µg/mL (≈ 2.14 µM); with P. aeruginosa [11] (P. aeruginosa isolate 7871 (MEM-R, AZT-I)), 0.5 µg/mL (≈ 1.07 µM); in the assay on P. aeruginosa [11] (P. aeruginosa isolate 7874), 0.5 µg/mL (≈ 1.07 µM). Also, the MIC in the assay on P. aeruginosa [11] (P. aeruginosa isolate 7886 (MEM-R, CIP-R, AZT-R)) is 1 µg/mL (≈ 2.14 µM); in the assay with P. aeruginosa [11] (P. aeruginosa isolate 8797 (MEM-R, TOB-R, AMK-R, CIP-R, AZT-R, COL-R)), >256 µg/mL; in the assay on P. aeruginosa [11] (P. aeruginosa isolate 8798 (MEM-R, TOB-R, AMK-R, CIP-R, AZT-R, COL-R)), 32 µg/mL (≈ 68.4 µM); in the assay with P. aeruginosa [11] (P. aeruginosa isolate 9108 (CIP-R, AZT-I)) it was 0.5 µg/mL (≈ 1.07 µM). Also, the “CLSI QC range of MIC” value in the assay with P. aeruginosa [8] and in the assay on P. aeruginosa [9] was “(0.25-1) μg/mL” each time.

(Values after patent US20230124862A1, “BISMUTH THIOL COMPOUNDS AND COMPOSITIONS AND METHODS OF TREATING MICROBIAL CO-INFECTIONS” (Microbion Corporation, priority 2020, published 2023).)
